Reference: PubChem BioAssay AID248 (DTP/NCI, 2004)
Several values for one entry are separate records, joined by “and”; a condition that tells them apart may be missing. Identical values can stand only once. Inconclusive results and toxic doses are left out.

Tested on: L1210 leukemia ip in BDF1 mice, survival T/C
Assay: NCI In Vivo Anticancer Drug Screen. Data for tumor model L1210 Leukemia (intraperitoneal) in B6D2F1 (BDF1) mice
Conditions: endpoint: mean survival time, higher = longer survival
Procedure, shortened: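 Survival endpoint. Drug-treated group vs vehicle group, expressed as T divided by C. Tumor passaged by transplantation.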

[1] = dose: 100.0 mg/kg/injection, schedule: Q01DX001 (ip), vehicle: saline with Tween-80
[2] = dose: 200.0 mg/kg/injection, schedule: Q01DX001 (ip), vehicle: saline with Tween-80
[3] = dose: 400.0 mg/kg/injection, schedule: Q01DX001 (ip), vehicle: saline with Tween-80

O=NN(CCCl)C(=O)NC1CCSc2ccccc21 (stereo unspecified)
T/C (dose: 18.0 mg/kg/injection, schedule: Q01DX001 (ip), vehicle: other): 170 % of control and 182 % of control and 219 % of control
T/C (dose: 26.0 mg/kg/injection, schedule: Q01DX001 (ip), vehicle: other): 232 % of control
T/C (dose: 27.0 mg/kg/injection, schedule: Q01DX001 (ip), vehicle: other): 306 % of control and 315 % of control
T/C (dose: 40.0 mg/kg/injection, schedule: Q01DX001 (ip), vehicle: other): 323 % of control and 340 % of control and 356 % of control
T/C (dose: 60.0 mg/kg/injection, schedule: Q01DX001 (ip), vehicle: other): 289 % of control and 313 % of control and 365 % of control
T/C (dose: 187.5 mg/kg/injection, schedule: Q01DX001 (ip), vehicle: other): 96 % of control

O=C(Nc1cccc2c(NC(=O)c3ccccc3)cccc12)c1ccccc1
T/C [1]: 92 % of control
T/C [2]: 91 % of control
T/C [3]: 89 % of control

O=C(c1ccccc1)C1(Br)CCC1
T/C (dose: 100.0 mg/kg/injection, schedule: Q01DX009 (ip), vehicle: saline sonified): 101 % of control
T/C (dose: 200.0 mg/kg/injection, schedule: Q01DX009 (ip), vehicle: saline sonified): 97 % of control
T/C (dose: 400.0 mg/kg/injection, schedule: Q01DX009 (ip), vehicle: saline sonified): 101 % of control

CCCCCCCCC(=O)N1CCN(C)CC1
T/C (dose: 100.0 mg/kg/injection, schedule: Q04DX002 (ip), vehicle: saline): 103 % of control

COc1ccc(CCNC(=O)c2ccccc2N)cc1OC
T/C [1]: 97 % of control
T/C (dose: 100.0 mg/kg/injection, schedule: Q01DX009 (ip), vehicle: saline with Tween-80): 90 % of control and 91 % of control
T/C (dose: 100.0 mg/kg/injection, schedule: Q04DX002 (ip), vehicle: saline with Tween-80): 98 % of control
T/C (dose: 100.0 mg/kg/injection, schedule: Q04DX003 (ip), vehicle: saline with Tween-80): 105 % of control
T/C [2]: 98 % of control
T/C (dose: 200.0 mg/kg/injection, schedule: Q01DX009 (ip), vehicle: saline with Tween-80): 95 % of control and 109 % of control
T/C (dose: 200.0 mg/kg/injection, schedule: Q04DX002 (ip), vehicle: saline with Tween-80): 98 % of control
T/C (dose: 200.0 mg/kg/injection, schedule: Q04DX003 (ip), vehicle: saline with Tween-80): 92 % of control
T/C [3]: 106 % of control
T/C (dose: 400.0 mg/kg/injection, schedule: Q01DX009 (ip), vehicle: saline with Tween-80): 90 % of control and 91 % of control
T/C (dose: 400.0 mg/kg/injection, schedule: Q04DX002 (ip), vehicle: saline with Tween-80): 95 % of control
T/C (dose: 400.0 mg/kg/injection, schedule: Q04DX003 (ip), vehicle: saline with Tween-80): 95 % of control

COc1ccc(NC(=O)Nc2ccc(CCO)cc2)c(OC)c1
T/C (dose: 100.0 mg/kg/injection, schedule: Q04DX002 (ip), vehicle: Klucel (hydroxypropylcellulose) (HPC)): 97 % of control
T/C (dose: 200.0 mg/kg/injection, schedule: Q04DX002 (ip), vehicle: Klucel (hydroxypropylcellulose) (HPC)): 93 % of control
T/C (dose: 400.0 mg/kg/injection, schedule: Q04DX002 (ip), vehicle: Klucel (hydroxypropylcellulose) (HPC)): 93 % of control

NC(N)=N/N=C(/C=C/c1ccccc1)c1ccc(Cl)cc1
T/C (dose: 15.0 mg/kg/injection, schedule: Q01DX Z (ip), vehicle: carboxymethylcellulose (CMC)): 92 % of control
T/C (dose: 30.0 mg/kg/injection, schedule: Q01DX Z (ip), vehicle: carboxymethylcellulose (CMC)): 92 % of control
T/C (dose: 60.0 mg/kg/injection, schedule: Q01DX Z (ip), vehicle: carboxymethylcellulose (CMC)): 95 % of control and 91 % of control
T/C (dose: 120.0 mg/kg/injection, schedule: Q01DX Z (ip), vehicle: carboxymethylcellulose (CMC)): 101 % of control and 88 % of control
T/C (dose: 120.0 mg/kg/injection, schedule: Q01DX Z (oral), vehicle: carboxymethylcellulose (CMC)): 96 % of control
T/C (dose: 240.0 mg/kg/injection, schedule: Q01DX Z (ip), vehicle: carboxymethylcellulose (CMC)): 90 % of control
T/C (dose: 240.0 mg/kg/injection, schedule: Q01DX Z (oral), vehicle: carboxymethylcellulose (CMC)): 100 % of control
T/C (dose: 480.0 mg/kg/injection, schedule: Q01DX Z (oral), vehicle: carboxymethylcellulose (CMC)): 105 % of control
T/C (dose: 960.0 mg/kg/injection, schedule: Q01DX Z (oral), vehicle: carboxymethylcellulose (CMC)): 102 % of control

O=C(O)C1(C(=O)O)CC23CCC2(C1)CC(C(=O)O)(C(=O)O)C3 (stereo unspecified)
T/C (dose: 100.0 mg/kg/injection, schedule: Q04DX003 (ip), vehicle: saline): 95 % of control
T/C (dose: 200.0 mg/kg/injection, schedule: Q04DX003 (ip), vehicle: saline): 97 % of control
T/C (dose: 400.0 mg/kg/injection, schedule: Q04DX003 (ip), vehicle: saline): 103 % of control

Cc1nc2ccc(-c3ccccc3)cc2s1
T/C [1]: 111 % of control
T/C [2]: 108 % of control
T/C [3]: 103 % of control

O=C(Cc1ccccc1)Nc1cccnc1
T/C (dose: 75.0 mg/kg/injection, schedule: Q04DX003 (ip), vehicle: Klucel (hydroxypropylcellulose) (HPC)): 102 % of control
T/C (dose: 100.0 mg/kg/injection, schedule: Q01DX001 (ip), vehicle: Klucel (hydroxypropylcellulose) (HPC)): 97 % of control
T/C (dose: 150.0 mg/kg/injection, schedule: Q04DX003 (ip), vehicle: Klucel (hydroxypropylcellulose) (HPC)): 114 % of control
T/C (dose: 200.0 mg/kg/injection, schedule: Q01DX001 (ip), vehicle: Klucel (hydroxypropylcellulose) (HPC)): 103 % of control
T/C (dose: 300.0 mg/kg/injection, schedule: Q04DX003 (ip), vehicle: Klucel (hydroxypropylcellulose) (HPC)): 104 % of control
T/C (dose: 400.0 mg/kg/injection, schedule: Q01DX001 (ip), vehicle: Klucel (hydroxypropylcellulose) (HPC)): 92 % of control

COc1nc2ccccc2c2ccccc12
T/C (dose: 100.0 mg/kg/injection, schedule: Q01DX001 (ip), vehicle: other): 105 % of control
T/C (dose: 200.0 mg/kg/injection, schedule: Q01DX001 (ip), vehicle: other): 102 % of control
T/C (dose: 400.0 mg/kg/injection, schedule: Q01DX001 (ip), vehicle: other): 107 % of control

NC(CSC(c1ccccc1)(c1ccccc1)c1ccc(O)cc1)C(=O)O (stereo unspecified)
T/C (dose: 6.25 mg/kg/injection, schedule: Q01DX009 (ip), vehicle: saline): 111 % of control
T/C (dose: 12.5 mg/kg/injection, schedule: Q01DX009 (ip), vehicle: saline): 105 % of control
T/C (dose: 25.0 mg/kg/injection, schedule: Q01DX009 (ip), vehicle: saline): 116 % of control
T/C (dose: 75.0 mg/kg/injection, schedule: Q01DX001 (ip), vehicle: other): 104 % of control
T/C (dose: 150.0 mg/kg/injection, schedule: Q01DX001 (ip), vehicle: other): 109 % of control

NNc1c(F)c(F)c(NN)c(F)c1F
T/C (dose: 6.25 mg/kg/injection, schedule: Q04DX003 (ip), vehicle: Klucel (hydroxypropylcellulose) (HPC)): 96 % of control
T/C (dose: 12.5 mg/kg/injection, schedule: Q04DX003 (ip), vehicle: Klucel (hydroxypropylcellulose) (HPC)): 93 % of control
T/C (dose: 25.0 mg/kg/injection, schedule: Q04DX003 (ip), vehicle: Klucel (hydroxypropylcellulose) (HPC)): 95 % of control

CC(=O)Oc1cccc2cc3cc(C)cc(OC(C)=O)c3c(OC(C)=O)c12
T/C (dose: 0.5 mg/kg/injection, schedule: Q01DX001 (ip), vehicle: saline): 106 % of control
T/C (dose: 1.0 mg/kg/injection, schedule: Q01DX001 (ip), vehicle: saline): 104 % of control
T/C (dose: 2.0 mg/kg/injection, schedule: Q01DX001 (ip), vehicle: saline): 108 % of control
T/C (dose: 4.0 mg/kg/injection, schedule: Q01DX001 (ip), vehicle: saline): 110 % of control
T/C (dose: 5.0 mg/kg/injection, schedule: Q01DX001 (ip), vehicle: saline): 108 % of control
T/C (dose: 8.0 mg/kg/injection, schedule: Q01DX001 (ip), vehicle: saline): 116 % of control

O=c1[nH]c2cscc2c(=O)n1OS(=O)(=O)c1ccccc1
T/C (dose: 100.0 mg/kg/injection, schedule: Q01DX009 (ip), vehicle: Klucel (hydroxypropylcellulose) (HPC)): 93 % of control
T/C (dose: 200.0 mg/kg/injection, schedule: Q01DX009 (ip), vehicle: Klucel (hydroxypropylcellulose) (HPC)): 95 % of control
T/C (dose: 400.0 mg/kg/injection, schedule: Q01DX009 (ip), vehicle: Klucel (hydroxypropylcellulose) (HPC)): 100 % of control

CCC1=CC2CC3(C(=O)OC)c4[nH]c5ccccc5c4CC[N+](Cc4ccccc4)(C2)C13 (stereo unspecified)
T/C (dose: 100.0 mg/kg/injection, schedule: Q01DX001 (ip), vehicle: saline): 100 % of control

COc1cccc(S(C)(=O)=O)c1
T/C (dose: 75.0 mg/kg/injection, schedule: Q01DX009 (ip), vehicle: saline): 105 % of control
T/C (dose: 75.0 mg/kg/injection, schedule: Q04DX003 (ip), vehicle: saline): 101 % of control
T/C (dose: 150.0 mg/kg/injection, schedule: Q01DX009 (ip), vehicle: saline): 97 % of control
T/C (dose: 150.0 mg/kg/injection, schedule: Q04DX003 (ip), vehicle: saline): 101 % of control
T/C (dose: 300.0 mg/kg/injection, schedule: Q01DX009 (ip), vehicle: saline): 92 % of control
T/C (dose: 300.0 mg/kg/injection, schedule: Q04DX003 (ip), vehicle: saline): 100 % of control
